Measurements taken from patent US20230111310A1, “CARBOXYLIC ACID DERIVATIVE-SUBSTITUTED IMINO ARYL COMPOUND, PREPARATION METHOD THEREFOR, HERBICIDAL COMPOSITION AND USE THEREOF” (Qingdao Kingagroot Chemical Compound Co., Ltd., priority 2020, published 2023).

Experiments:
Assay in all cases: Weeding effect in post-emergence stage
Type in all cases: in vivo
Details in all cases: fresh weight control rate level
[1] = test system: Digitaria sanguinalis
Procedure, shortened: (§1)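 Pot-grown weeds were sprayed at the 2-3 leaf stage, 2 weeks after sowing, with compound in acetone plus Tween 80 and 1.5 liter/ha methyl oleate emulsifiable concentrate, diluted in water. Doses were 500, 250, 125, 60, 30, 15, 7.5 g/ha. Growth control was scored after 3 weeks in greenhouse; mean of three replicates.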

[2] = test system: Abutilon theophrasti
Procedure, shortened: as §1

[3] = test system: Setaria viridis
Procedure, shortened: as §1

[4] = test system: Eleusine indica
Procedure, shortened: as §1

[5] = test system: Alopecurus japonicus
Procedure, shortened: as §1

[6] = test system: Echinochloa crusgalli
Procedure, shortened: as §1

SMILES | Weeding effect in post-emergence stage, Digitaria sanguinalis (level) ([1]; Dose 15 g/ha) | Weeding effect in post-emergence stage, Abutilon theophrasti (level) ([2]; Dose 15 g/ha) | Weeding effect in post-emergence stage, Setaria viridis (level) ([3]; Dose 15 g/ha) | Weeding effect in post-emergence stage, Eleusine indica (level) ([4]; Dose 15 g/ha) | Weeding effect in post-emergence stage, Alopecurus japonicus (level) ([5]; Dose 15 g/ha) | Weeding effect in post-emergence stage, Echinochloa crusgalli (level) ([6]; Dose 15 g/ha) | Weeding effect in post-emergence stage, Digitaria sanguinalis (level) ([1]; Dose 30 g/ha) | Weeding effect in post-emergence stage, Abutilon theophrasti (level) ([2]; Dose 30 g/ha) | Weeding effect in post-emergence stage, Setaria viridis (level) ([3]; Dose 30 g/ha) | Weeding effect in post-emergence stage, Eleusine indica (level) ([4]; Dose 30 g/ha) | Weeding effect in post-emergence stage, Alopecurus japonicus (level) ([5]; Dose 30 g/ha) | Weeding effect in post-emergence stage, Echinochloa crusgalli (level) ([6]; Dose 30 g/ha)
COC(=O)[C@@H](CC(C)C)O/N=C/c1cc(-n2c(=O)cc(C(F)(F)F)n(C)c2=O)c(F)cc1Cl [455(R)] | 5 (Level 5: growth control rate is above 85%) | 5 (Level 5: growth control rate is above 85%) | 5 (Level 5: growth control rate is above 85%) | 5 (Level 5: growth control rate is above 85%) | 5 (Level 5: growth control rate is above 85%) | 5 (Level 5: growth control rate is above 85%) | – | – | – | – | – | –
COC(=O)[C@H](O/N=C/c1cc(-n2c(=O)cc(C(F)(F)F)n(C)c2=O)c(F)cc1Cl)C1CC1 [456(R)] | – | – | – | – | – | – | 5 (Level 5: growth control rate is above 85%) | 5 (Level 5: growth control rate is above 85%) | 5 (Level 5: growth control rate is above 85%) | 5 (Level 5: growth control rate is above 85%) | 5 (Level 5: growth control rate is above 85%) | 5 (Level 5: growth control rate is above 85%)
COC(=O)[C@@H](CC1CC1)O/N=C/c1cc(-n2c(=O)cc(C(F)(F)F)n(C)c2=O)c(F)cc1Cl [462(R)] | 5 (Level 5: growth control rate is above 85%) | 5 (Level 5: growth control rate is above 85%) | 5 (Level 5: growth control rate is above 85%) | 5 (Level 5: growth control rate is above 85%) | 5 (Level 5: growth control rate is above 85%) | 5 (Level 5: growth control rate is above 85%) | – | – | – | – | – | –
COC(=O)[C@H](CF)O/N=C/c1cc(-n2c(=O)cc(C(F)(F)F)n(C)c2=O)c(F)cc1Cl [463(R)] | 5 (Level 5: growth control rate is above 85%) | 5 (Level 5: growth control rate is above 85%) | 5 (Level 5: growth control rate is above 85%) | 5 (Level 5: growth control rate is above 85%) | 5 (Level 5: growth control rate is above 85%) | 5 (Level 5: growth control rate is above 85%) | – | – | – | – | – | –
COC(=O)[C@@H](C)O/N=C/c1cc(-n2c(=O)c(C)c(C(F)(F)F)n(C)c2=O)c(F)cc1Cl [473(R)] | – | – | – | – | – | – | 5 (Level 5: growth control rate is above 85%) | 5 (Level 5: growth control rate is above 85%) | 5 (Level 5: growth control rate is above 85%) | 5 (Level 5: growth control rate is above 85%) | 5 (Level 5: growth control rate is above 85%) | 5 (Level 5: growth control rate is above 85%)
C[C@@H](O/N=C/c1cc(-n2c(=O)cc(C(F)(F)F)n(C)c2=O)c(F)cc1Cl)C(=O)OCc1ccc(Cl)nc1 [495(R)] | 5 (Level 5: growth control rate is above 85%) | 5 (Level 5: growth control rate is above 85%) | 5 (Level 5: growth control rate is above 85%) | 5 (Level 5: growth control rate is above 85%) | 5 (Level 5: growth control rate is above 85%) | 5 (Level 5: growth control rate is above 85%) | – | – | – | – | – | –
C[C@@H](O/N=C/c1cc(-n2c(=O)cc(C(F)(F)F)n(C)c2=O)c(F)cc1Cl)C(=O)OCCC1OCCO1 [498(R)] | 5 (Level 5: growth control rate is above 85%) | 5 (Level 5: growth control rate is above 85%) | 5 (Level 5: growth control rate is above 85%) | 5 (Level 5: growth control rate is above 85%) | 5 (Level 5: growth control rate is above 85%) | 5 (Level 5: growth control rate is above 85%) | – | – | – | – | – | –
C[C@@H](O/N=C/c1cc(-n2c(=O)cc(C(F)(F)F)n(C)c2=O)c(F)cc1Cl)C(N)=O [499(R)] | 5 (Level 5: growth control rate is above 85%) | 5 (Level 5: growth control rate is above 85%) | 5 (Level 5: growth control rate is above 85%) | 5 (Level 5: growth control rate is above 85%) | 5 (Level 5: growth control rate is above 85%) | 5 (Level 5: growth control rate is above 85%) | – | – | – | – | – | –
C/C(Cl)=C/COC(=O)[C@@H](C)O/N=C/c1cc(-n2c(=O)cc(C(F)(F)F)n(C)c2=O)c(F)cc1Cl [500(R)] | 5 (Level 5: growth control rate is above 85%) | 5 (Level 5: growth control rate is above 85%) | 5 (Level 5: growth control rate is above 85%) | 5 (Level 5: growth control rate is above 85%) | 5 (Level 5: growth control rate is above 85%) | 5 (Level 5: growth control rate is above 85%) | – | – | – | – | – | –
C=C(Cl)COC(=O)[C@@H](C)O/N=C/c1cc(-n2c(=O)cc(C(F)(F)F)n(C)c2=O)c(F)cc1Cl [501(R)] | 5 (Level 5: growth control rate is above 85%) | 5 (Level 5: growth control rate is above 85%) | 5 (Level 5: growth control rate is above 85%) | 5 (Level 5: growth control rate is above 85%) | 5 (Level 5: growth control rate is above 85%) | 5 (Level 5: growth control rate is above 85%) | – | – | – | – | – | –
CCN(CC)C(=O)[C@@H](C)O/N=C/c1cc(-n2c(=O)cc(C(F)(F)F)n(C)c2=O)c(F)cc1Cl [502(R)] | 5 (Level 5: growth control rate is above 85%) | 5 (Level 5: growth control rate is above 85%) | 5 (Level 5: growth control rate is above 85%) | 5 (Level 5: growth control rate is above 85%) | 5 (Level 5: growth control rate is above 85%) | 5 (Level 5: growth control rate is above 85%) | – | – | – | – | – | –
C[C@@H](O/N=C/c1cc(-n2c(=O)cc(C(F)(F)F)n(C)c2=O)c(F)cc1Cl)C(=O)NS(=O)(=O)CCl [503(R)] | 5 (Level 5: growth control rate is above 85%) | 5 (Level 5: growth control rate is above 85%) | 5 (Level 5: growth control rate is above 85%) | 5 (Level 5: growth control rate is above 85%) | 5 (Level 5: growth control rate is above 85%) | 5 (Level 5: growth control rate is above 85%) | – | – | – | – | – | –
COC(=O)C(C)ON=Cc1nc(-n2c(=O)cc(C(F)(F)F)n(C)c2=O)c(F)cc1Cl [504(R)] | 5 (Level 5: growth control rate is above 85%) | 5 (Level 5: growth control rate is above 85%) | 5 (Level 5: growth control rate is above 85%) | 5 (Level 5: growth control rate is above 85%) | 5 (Level 5: growth control rate is above 85%) | 5 (Level 5: growth control rate is above 85%) | – | – | – | – | – | –
COC(=O)[C@@H](C)S/N=C/c1cc(-n2c(=O)cc(C(F)(F)F)n(C)c2=O)c(F)cc1Cl [730(R)] | 5 (Level 5: growth control rate is above 85%) | 5 (Level 5: growth control rate is above 85%) | 5 (Level 5: growth control rate is above 85%) | 5 (Level 5: growth control rate is above 85%) | 5 (Level 5: growth control rate is above 85%) | 5 (Level 5: growth control rate is above 85%) | – | – | – | – | – | –
COC(=O)[C@@H](C)N/N=C/c1cc(-n2c(=O)cc(C(F)(F)F)n(C)c2=O)c(F)cc1Cl [919(R)] | – | – | – | – | – | – | 5 (Level 5: growth control rate is above 85%) | 5 (Level 5: growth control rate is above 85%) | 5 (Level 5: growth control rate is above 85%) | 5 (Level 5: growth control rate is above 85%) | 5 (Level 5: growth control rate is above 85%) | 5 (Level 5: growth control rate is above 85%)
